The text below walks through data of patent US12076313B2 (CELISTA PHARMACEUTICALS LLC, priority 2020, dated 2024).

A short description of the assay: Rat topical application study: effectiveness at low dose and topical absorption. It counts as in vivo. The conditions noted are these: rats, topical, 20 μg/100 μL.

Experimental: A study was performed in rats with formulations A and B, and a control formulation. Formulation A was IMQ+penetration enhancer (P.E.) at 20 μg/100 μL. […] The Control formulation was IMQ at 20 μg/100 μL in ethanol.

Consider `CC(C)Cn1cnc2c(N)nc3ccccc3c21` [Imiquimod, 1-(2-methylpropyl)-1H-imidazo[4,5-c]quinolin-4-amine], for which the “effectiveness at a low dose” value is listed as “effective”.
